Test results as given in patent publication EP1053246B1, “BETA-SHEET MIMETICS AND METHODS RELATING TO THE USE THEREOF” (MOLECUMETICS, LTD., priority 1998, dated 1999).
Where two headings read alike, the source gives them in different places.

How the values were obtained:
[1] = biological target: T1, factor VII (Homo sapiens, UniProt P08709); test: Factor VII inhibition assay (Ki, Example 5); assay type: biochemical
T1 construct: human Factor VIIa (FVIIa)
T1 sequence (P08709 61-212 limits assumed): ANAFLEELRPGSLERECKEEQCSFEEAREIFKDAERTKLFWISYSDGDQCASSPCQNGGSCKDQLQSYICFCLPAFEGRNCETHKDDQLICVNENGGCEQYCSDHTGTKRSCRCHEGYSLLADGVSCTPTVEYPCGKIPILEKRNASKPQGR
T1 sequence (P08709 213-466 limits assumed): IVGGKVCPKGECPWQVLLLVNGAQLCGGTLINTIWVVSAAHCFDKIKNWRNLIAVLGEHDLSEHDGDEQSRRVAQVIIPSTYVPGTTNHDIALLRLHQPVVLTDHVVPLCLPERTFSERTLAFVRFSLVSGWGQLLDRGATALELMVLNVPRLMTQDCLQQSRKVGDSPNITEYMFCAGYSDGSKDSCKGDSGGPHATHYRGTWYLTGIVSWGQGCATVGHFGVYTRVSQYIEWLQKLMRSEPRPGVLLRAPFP
Protocol: (§1) The reaction progress curves were recorded by reading the plates, typically 60 times with 30 second to 2 minute intervals. Initial rates were determined by unweighted nonlinear least-squares fitting to a first order reaction in GraFit (Erithacus Software Limited, London, England).
From this concentration point seven more sequential dilutions were made for the assay.

[2] = biological target: t-PA (Homo sapiens, UniProt P00750); test: t-PA inhibition assay (Ki, Example 5); assay type: biochemical
Protocol: as §1

[3] = biological target: T2, APC (Homo sapiens, UniProt P04070); test: activated protein C inhibition assay (Ki, Example 5); assay type: biochemical, human plasma
T2 construct: from tissue; host or cells: human plasma

[4] = biological target: tryptase; test: tryptase inhibition assay (Ki, Example 5); assay type: biochemical, human lung
Protocol: as §1
Tryptase: 0.1 M tris, 0.2 M NaCl, 0.1 mg/ml heparin, pH=8.0 was utilized as buffer. […] From this point seven more dilutions were made for the assay.

[5] = biological target: T3, trypsin (Bos taurus, UniProt P00760); test: trypsin inhibition assay (Ki, Example 5); assay type: biochemical, bovine pancreas
T3 construct: from tissue; host or cells: bovine pancreas
T3 sequence (P00760 24-246): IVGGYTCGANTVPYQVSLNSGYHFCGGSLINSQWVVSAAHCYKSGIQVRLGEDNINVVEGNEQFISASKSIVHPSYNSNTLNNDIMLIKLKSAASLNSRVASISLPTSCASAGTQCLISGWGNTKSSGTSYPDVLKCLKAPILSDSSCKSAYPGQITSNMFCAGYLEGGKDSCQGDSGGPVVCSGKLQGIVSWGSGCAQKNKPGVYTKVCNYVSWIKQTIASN
Protocol: as §1

[6] = biological target: Factor XI (Homo sapiens, UniProt P03951); test: Factor XI inhibition assay (Ki); assay type: biochemical
[7] = biological target: thrombin-thrombomodulin complex (Bos taurus, UniProt P00735); test: thrombin-thrombomodulin complex inhibition assay (Ki); assay type: biochemical; conditions: thrombin preincubated with 4 nM thrombomodulin, read-out: Ki (M) T.T.C.
[8] = biological target: Plasmin (Bos taurus, UniProt P06868); test: plasmin inhibition assay (Ki, Example 5); assay type: biochemical, bovine plasma; parameters: Plasmin: Buffer (see thrombin assay); from tissue; host or cells: bovine plasma
Protocol: as §1

[9] = biological target: thrombin (Bos taurus, UniProt P00735); test: thrombin inhibition assay (Ki, Example 5); assay type: biochemical, bovine plasma; parameters: Thrombin: N-p-tosyl-Gly-Pro-Arg-pNA (from Sigma) was used at 0.5 mM concentration; from tissue; host or cells: bovine plasma
Protocol: as §1
Seven sequential dilutions were made from the first point for the assay.

[10] = biological target: T4, bovine factor Xa (Bos taurus, UniProt P00743); test: Factor X inhibition assay (IC50, Example 4); assay type: biochemical; conditions: Factor X; read-out: IC50
T4 construct: bovine factor Xa (from Sigma); purchased Sigma
Protocol: All inhibition assays of this experiment were performed at room temperature in 96 well microplates using a Bio-Rad microplate reader (Model 3550). […] This solution (2.05 mM) served as the stock solution for all the inhibition assays. The hydrolysis of chromogenic substrates was monitored at 405 nm. The reaction progress curves were recorded by reading the plates typically 90 times with 30 seconds to 2 minute intervals. The initial rate were determined by unweighted nonlinear least-squares fitting to a first order reaction in GraFit.
In the Factor X assay, buffer and substrate are the same as used for thrombin assay. A 1:100 dilution was made into pH 8.4 Tris buffer to serve as the first point. Seven dilutions with a dilution factor of 2 were made. The assay protocol is the same as for thrombin except 25 nM of bovine factor Xa (from Sigma) in pH 8.4 Tris buffer was used instead of thrombin.

[11] = system: control plasma; test: prothrombin time (PT) in control plasma; assay type: biochemical
Protocol: Then 200 µl of prewarmed (at 37°C for ∼10 minutes) thromboplastin with calcium (from Sigma) was rapidly added into the plasma sample. […]

[12] = biological target: thermolysin (Bacillus thermoproteolyticus, UniProt P00800); test: thermolysin inhibition assay; assay type: biochemical
[13] = biological target: T5, leucine aminopeptidase M (Sus scrofa, UniProt P15145); test: leucine aminopeptidase M inhibition assay; assay type: biochemical
T5 construct: purchased Sigma

[14] = biological target: papain (Carica papaya, UniProt P00784); test: papain inhibition assay
[15] = biological target: T6, bovine thrombin (Bos taurus, UniProt P00735); test: thrombin assay: hydrolysis of the mimetic as proteolytic substrate; assay type: biochemical
T6 construct: bovine thrombin (from Sigma); purchased Sigma
Protocol: (§2) Both the thrombin and Factor VII assays of this experiment were carried out at 37°C using a Hitachi UV/Vis spectrophotometer (model U-3000). Structure (11b) was dissolved in deionized water. The concentration was determined from the absorbance at 342 nm. […] Initial velocities were calculated from the initial linear portion of the reaction progress curve. Kinetic parameters were determined by unweighted nonlinear least-squares fitting of the simple Michaelis-Menten equation to the experimental data using GraFit (Version 3.0, Erithacus Software Limited).
For the thrombin assay, experiments were performed in pH 8.4 Tris buffer (Tris, 0.05M; NaCl, 0.15M). 6.4 NIH units of bovine thrombin (from Sigma) were dissolved into 10 ml of the assay buffer to yield 10 nM thrombin solution. […] The first two minutes of the reactions were recorded for initial velocity determination.
(§3) In both the thrombin and Factor VII assay of this experiment, (D)FPR-PNA was run as a control.

[16] = biological target: T7, human Factor VIIa (FVIIa) (Homo sapiens, UniProt P08709); test: Factor VII assay: hydrolysis of the mimetic as proteolytic substrate; assay type: biochemical; conditions: relative to (D)FPR-PNA control
T7 construct: human Factor VIIa (FVIIa)
Protocol: as §2
For the Factor VII assay, pH 8.0 Tris buffer (0.05 M Tris, 5 mM CaCl2, 0.15 M NaCl, 0.1% TWEEN 20, 0.1% BSA) was used. 10 µl of 20 µM human Factor VIIa (FVIIa) and 22 µM of human tissue factor (TF) was brought to assay buffer to make 160 nM FVIIa and TF solutions, respectively. […] The initial 3 minutes reaction progress curves were recorded. […] The kcat/KM was calculated from the slope and found to be 17,500 M^-1s^-1.
as §3

[17] = system: Factor X; test: Factor X inhibition assay (Ki), source of enzyme not stated; assay type: biochemical; conditions: ratio of Ki of an enzyme to the Ki of thrombin
[18] = biological target: T8, factor X (Bos taurus, UniProt P00743); test: Factor X inhibition assay (Ki, Example 5), bovine plasma enzyme; assay type: biochemical; conditions: footnote e: bovine plasma
T8 construct: bovine factor Xa (from Sigma); from tissue; host or cells: bovine plasma
Protocol: All inhibition assays were performed at room temperature in 96 well microplates using Bio-Rad microplate reader (Model 3550). […] The hydrolysis of chromogenic substrates was monitored at 405 nm. The reaction progress curves were recorded by reading the plates, typically 60 times with 30 second to 2 minute intervals. Initial rates were determined by unweighted nonlinear least-squares fitting to a first order reaction in GraFit (Erithacus Software Limited, London, England).
Factor X: Buffer and substrate were the same as used for thrombin assay. A 1:100 dilution was made -in the pH8.0 tris buffer to serve as the first point. Seven more dilutions from the first were made for the assay.

[19] = system: thioredoxin; test: block of insulin disulfide reduction by thioredoxin (turbidity at 650 nm); assay type: biochemical; conditions: 8 µM thioredoxin, 0-100 µM compound, 60 minutes
[20] = substrate hydrolysis, pH 8.4 Tris buffer, 37°C

Sequence of Factor XI (P03951 388-625 limits assumed): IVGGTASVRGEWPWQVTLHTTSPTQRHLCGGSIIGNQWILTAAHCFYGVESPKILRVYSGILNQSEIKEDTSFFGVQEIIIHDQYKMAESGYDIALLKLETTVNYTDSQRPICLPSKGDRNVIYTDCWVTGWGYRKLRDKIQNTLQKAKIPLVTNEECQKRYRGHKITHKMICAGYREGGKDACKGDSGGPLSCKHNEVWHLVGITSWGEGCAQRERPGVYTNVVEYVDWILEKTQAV
Sequence of Factor XI (P03951 19-387 limits assumed): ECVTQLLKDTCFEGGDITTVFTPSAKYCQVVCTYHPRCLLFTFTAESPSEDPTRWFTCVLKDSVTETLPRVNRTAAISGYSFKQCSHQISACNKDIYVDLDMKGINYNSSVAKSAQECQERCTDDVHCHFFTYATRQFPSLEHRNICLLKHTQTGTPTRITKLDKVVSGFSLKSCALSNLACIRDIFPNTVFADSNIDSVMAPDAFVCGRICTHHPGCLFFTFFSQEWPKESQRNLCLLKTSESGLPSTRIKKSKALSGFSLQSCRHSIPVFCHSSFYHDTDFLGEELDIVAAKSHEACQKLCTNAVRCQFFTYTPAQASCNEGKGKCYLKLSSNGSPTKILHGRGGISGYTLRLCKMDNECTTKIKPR
T8 sequence (P00743 41-180 limits assumed): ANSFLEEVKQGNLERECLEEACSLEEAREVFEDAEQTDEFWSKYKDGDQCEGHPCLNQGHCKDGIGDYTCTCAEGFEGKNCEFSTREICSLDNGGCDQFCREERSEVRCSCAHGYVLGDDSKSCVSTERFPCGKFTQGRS
T8 sequence (P00743 234-492 limits assumed): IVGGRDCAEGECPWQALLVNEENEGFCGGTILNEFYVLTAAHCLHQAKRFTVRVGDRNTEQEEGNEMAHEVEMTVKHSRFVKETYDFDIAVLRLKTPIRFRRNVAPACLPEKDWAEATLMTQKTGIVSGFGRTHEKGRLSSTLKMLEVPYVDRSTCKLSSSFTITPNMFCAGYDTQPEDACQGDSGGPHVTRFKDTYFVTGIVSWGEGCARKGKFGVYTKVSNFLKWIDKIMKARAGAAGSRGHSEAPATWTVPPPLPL
Sequence of papain (P00784 134-345): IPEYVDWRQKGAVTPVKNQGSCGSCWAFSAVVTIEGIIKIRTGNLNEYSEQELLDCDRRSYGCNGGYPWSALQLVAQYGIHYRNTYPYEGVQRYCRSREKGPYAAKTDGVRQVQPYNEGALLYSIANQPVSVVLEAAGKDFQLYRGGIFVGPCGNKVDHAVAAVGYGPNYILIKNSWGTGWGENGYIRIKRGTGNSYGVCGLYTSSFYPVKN
T5 sequence (P15145 whole entry): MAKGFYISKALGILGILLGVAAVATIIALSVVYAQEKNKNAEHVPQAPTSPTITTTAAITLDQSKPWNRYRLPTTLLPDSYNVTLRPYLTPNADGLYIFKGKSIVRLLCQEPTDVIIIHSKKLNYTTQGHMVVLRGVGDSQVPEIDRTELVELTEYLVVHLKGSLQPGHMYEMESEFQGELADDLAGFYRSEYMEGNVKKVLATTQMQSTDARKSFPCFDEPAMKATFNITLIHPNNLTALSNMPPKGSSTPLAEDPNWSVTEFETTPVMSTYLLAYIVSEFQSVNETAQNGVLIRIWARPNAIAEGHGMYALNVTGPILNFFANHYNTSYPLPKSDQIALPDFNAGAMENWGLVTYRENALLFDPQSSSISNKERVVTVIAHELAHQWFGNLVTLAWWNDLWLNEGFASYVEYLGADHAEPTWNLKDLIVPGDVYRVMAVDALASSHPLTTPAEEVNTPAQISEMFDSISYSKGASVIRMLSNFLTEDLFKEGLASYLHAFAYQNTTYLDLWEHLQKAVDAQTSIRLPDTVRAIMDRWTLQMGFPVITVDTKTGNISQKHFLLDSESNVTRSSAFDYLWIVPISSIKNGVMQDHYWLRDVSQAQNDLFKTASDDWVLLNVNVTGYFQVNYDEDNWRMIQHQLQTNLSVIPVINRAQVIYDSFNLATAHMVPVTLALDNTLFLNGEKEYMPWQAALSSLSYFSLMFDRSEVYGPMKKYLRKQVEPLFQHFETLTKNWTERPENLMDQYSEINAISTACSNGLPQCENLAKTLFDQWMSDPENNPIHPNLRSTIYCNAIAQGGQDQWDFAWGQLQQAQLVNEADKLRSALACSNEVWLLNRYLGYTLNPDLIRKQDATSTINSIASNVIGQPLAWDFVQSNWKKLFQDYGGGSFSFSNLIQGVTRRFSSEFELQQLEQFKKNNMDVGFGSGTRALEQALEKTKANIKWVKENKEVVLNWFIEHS
T2 sequence (P04070 43-197 limits assumed): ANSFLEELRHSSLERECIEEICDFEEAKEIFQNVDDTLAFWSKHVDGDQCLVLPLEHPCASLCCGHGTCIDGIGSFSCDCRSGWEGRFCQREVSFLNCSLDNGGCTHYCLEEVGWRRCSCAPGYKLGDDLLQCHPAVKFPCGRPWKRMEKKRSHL
T2 sequence (P04070 212-461 limits assumed): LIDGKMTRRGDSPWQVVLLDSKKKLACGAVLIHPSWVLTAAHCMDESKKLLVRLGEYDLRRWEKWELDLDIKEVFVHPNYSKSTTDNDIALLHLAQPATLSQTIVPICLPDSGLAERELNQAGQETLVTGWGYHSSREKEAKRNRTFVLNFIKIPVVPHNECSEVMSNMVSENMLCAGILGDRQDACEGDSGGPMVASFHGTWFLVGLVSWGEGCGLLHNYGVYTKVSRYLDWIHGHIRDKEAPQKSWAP
Sequence of t-PA (P00750 36-562): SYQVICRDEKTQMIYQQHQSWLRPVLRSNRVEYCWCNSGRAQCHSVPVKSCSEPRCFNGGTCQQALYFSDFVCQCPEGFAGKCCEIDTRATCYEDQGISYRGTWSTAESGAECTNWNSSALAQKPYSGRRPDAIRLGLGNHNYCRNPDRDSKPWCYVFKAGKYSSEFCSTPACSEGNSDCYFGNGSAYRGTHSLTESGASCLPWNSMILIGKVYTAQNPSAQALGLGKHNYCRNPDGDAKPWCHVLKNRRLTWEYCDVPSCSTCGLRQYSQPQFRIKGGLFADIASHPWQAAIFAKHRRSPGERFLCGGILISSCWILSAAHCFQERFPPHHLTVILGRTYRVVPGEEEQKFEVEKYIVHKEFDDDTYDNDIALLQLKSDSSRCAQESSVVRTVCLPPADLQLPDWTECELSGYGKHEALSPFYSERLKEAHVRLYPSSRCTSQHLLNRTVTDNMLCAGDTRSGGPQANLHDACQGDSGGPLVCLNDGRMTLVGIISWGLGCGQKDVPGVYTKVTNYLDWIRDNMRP
Sequence of Plasmin (P06868 104-583 limits assumed): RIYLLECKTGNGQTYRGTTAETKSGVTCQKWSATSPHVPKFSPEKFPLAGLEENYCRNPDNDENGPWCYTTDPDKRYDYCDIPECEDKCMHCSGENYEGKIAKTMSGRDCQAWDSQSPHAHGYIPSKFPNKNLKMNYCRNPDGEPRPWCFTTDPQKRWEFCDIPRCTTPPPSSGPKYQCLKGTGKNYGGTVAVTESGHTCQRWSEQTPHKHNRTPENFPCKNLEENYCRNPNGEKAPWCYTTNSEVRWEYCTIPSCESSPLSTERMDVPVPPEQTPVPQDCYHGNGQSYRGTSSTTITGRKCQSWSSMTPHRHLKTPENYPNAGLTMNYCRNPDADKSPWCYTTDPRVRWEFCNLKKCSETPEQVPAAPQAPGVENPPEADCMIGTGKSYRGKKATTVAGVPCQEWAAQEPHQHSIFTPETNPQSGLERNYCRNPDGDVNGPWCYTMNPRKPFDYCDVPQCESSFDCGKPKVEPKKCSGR
Sequence of Plasmin (P06868 584-812 limits assumed): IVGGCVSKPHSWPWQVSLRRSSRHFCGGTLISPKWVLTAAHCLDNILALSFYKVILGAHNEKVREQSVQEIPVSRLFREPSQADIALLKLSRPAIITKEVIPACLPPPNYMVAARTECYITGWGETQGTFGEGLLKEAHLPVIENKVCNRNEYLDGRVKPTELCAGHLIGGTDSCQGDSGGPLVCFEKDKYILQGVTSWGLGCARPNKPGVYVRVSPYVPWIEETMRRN
Sequence of thermolysin (P00800 233-548, species assumed): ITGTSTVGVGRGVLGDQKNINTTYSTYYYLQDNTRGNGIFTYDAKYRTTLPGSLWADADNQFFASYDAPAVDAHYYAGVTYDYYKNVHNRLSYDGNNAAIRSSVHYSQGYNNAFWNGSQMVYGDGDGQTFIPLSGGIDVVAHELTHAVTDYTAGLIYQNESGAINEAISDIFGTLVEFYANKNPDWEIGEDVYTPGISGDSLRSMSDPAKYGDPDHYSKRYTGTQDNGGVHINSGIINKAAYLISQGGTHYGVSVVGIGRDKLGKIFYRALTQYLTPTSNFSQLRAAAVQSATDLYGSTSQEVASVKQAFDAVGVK
T4 sequence (P00743 41-180 limits assumed): as the sequence (P00743 41-180 limits assumed) above
T4 sequence (P00743 234-492 limits assumed): as the sequence (P00743 234-492 limits assumed) above
T7 sequence (P13726 33-295 partner, one chain of several): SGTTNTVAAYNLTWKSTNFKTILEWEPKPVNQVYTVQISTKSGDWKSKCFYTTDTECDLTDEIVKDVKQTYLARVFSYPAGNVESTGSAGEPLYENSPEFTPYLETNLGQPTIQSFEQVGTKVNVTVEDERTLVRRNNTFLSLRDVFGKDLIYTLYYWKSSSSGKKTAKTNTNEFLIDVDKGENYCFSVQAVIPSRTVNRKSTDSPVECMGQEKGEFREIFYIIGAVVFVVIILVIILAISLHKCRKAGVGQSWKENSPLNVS

`COC(=O)c1c[nH]c(C(=O)[C@H](CCCNC(=N)N)NC(=O)[C@@H]2CCN3CC[C@@](N)(Cc4ccccc4)C(=O)N23)n1` [Structure (45)] was tested, and the Ki [1] was 29600 nM, the Ki [2] was 17.2 µM and the Ki [3] was 25.6 µM. For the same molecule, the Ki ([4]; read-out: Ki (M) Tryptase) was 1.65e-06 M, the Ki [5] was 52.4 nM and the Ki [6] was 1240 nM. It also gave a Ki [7] of 6.9e-09 M, a Ki [8] of 23.8 µM and a Ki [9] of 5.4 nM.
`N=C(N)NCCC[C@H](NC(=O)[C@@H]1CCN2CC[C@@](N)(Cc3ccccc3)C(=O)N12)C(=O)CCl` [(13b)] gave an IC50 [10] of 385 ± 17 nM, a PT ([11]; Concentration 1 pM) of 13 s and a PT ([11]; Concentration 10 pM) of 17 s. For the same molecule, the PT ([11]; Concentration 50 pM) was 18 s, the PT ([11]; Concentration 100 pM) was 23 s and the PT ([11]; Concentration 200 pM) was 24 s. It also gave a PT ([11]; Concentration 500 pM) of 27 s, a PT ([11]; Concentration 1 nM) of 30 s and a PT ([11]; Concentration 10 nM) of 31 s. It also gave a PT ([11]; Concentration 30 nM) of 31 s, a PT ([11]; Concentration 50 nM) of 30 s and a PT ([11]; Concentration 80 nM) of 33 s.
With `COc1ccc(CCNC(=O)C(=O)[C@H](CCCNC(=N)N)NC(=O)[C@@H]2CCN3CC[C@@](N)(Cc4ccccc4)C(=O)N23)cc1` [Structure (41)] the Ki [9] was 0.45 nM.
`COC(=O)c1cccc2c1C(=O)N([C@@H](CC(C)C)C(=O)NO)C2=O` [Structure (234)] gave a Ki [12] of 6 µM, a Ki [13] of 11 µM and an IC50 [14] of 8 µM.
`N=C(N)NCCC[C@H](NC(=O)[C@@H]1CCN2CC[C@@](N)(Cc3ccccc3)C(=O)N12)C(=O)Nc1ccc([N+](=O)[O-])cc1` [(11b)] was tested, and the Km [15, 20] was 3000 nM, the kcat [15, 20] was 50 s⁻¹ and the “Activity compared to the control” value ([15]; thrombin, relative to (D)FPR-PNA control) was 0.76. For the same molecule, the “Activity compared to the control” value [16] was 1.38.
Molecule `N=C(N)NCCC[C@H](NC(=O)[C@@H]1CCCN1C(=O)[C@H](N)Cc1ccccc1)C(=O)CCl` [PPACK, (D)FPR-CH2Cl, reference compound] has a PT ([11]; Concentration 500 pM) of 15 s, a PT ([11]; Concentration 1 nM) of 18 s and a PT ([11]; Concentration 10 nM) of 22 s. The PT ([11]; Concentration 20 nM) was 25 s, the PT ([11]; Concentration 40 nM) was 28 s and the PT ([11]; Concentration 60 nM) was 30 s. For the same molecule, the PT ([11]; Concentration 80 nM) was 31 s.
Molecule `N=C(N)NCCC[C@H](NC(=O)[C@@H]1CCN2CC[C@@](N)(Cc3ccccc3)C(=O)N12)C(=O)C(=O)NCc1ccccc1` [Structure (37)] has a Ki [5] of 0.0773 nM and a Ki [9] of 0.0732 nM.
Work on `N=C(N)NCCCC(NC(=O)C1CCC2CCC(N)(Cc3ccccc3)C(=O)N21)C(=O)c1nc2ccccc2s1` (stereo not drawn) [Structure (29b)] yielded a Ki ([4]; read-out: Ki (M) Tryptase) of 9e-09 M.
Work on `N=C(N)NC(=O)NC[C@H](NC(=O)[C@@H]1CCN2CC[C@@](N)(Cc3ccccc3)C(=O)N12)C(=O)c1nc2ccccc2s1` [Structure (51)] yielded a Ki [1] of 4260 nM, a Ki [5] of 37.9 nM and a Ki [6] of 1730 nM. The Ki [9] was 7.25 nM.
Work on `N=C(N)NCCC[C@H](NC(=O)[C@@H]1CCN2CC[C@@](N)(Cc3ccccc3)C(=O)N12)C(=O)C(=O)NCCc1ccc(Cl)cc1` [Structure (39)] yielded a Ki [9] of 0.31 nM.
Molecule `N=C(N)NCCCC(NC(=O)C1CCC2CCC(N)(Cc3ccccc3)C(=O)N21)C(=O)c1nc2ccccc2s1` (stereo not drawn) [(29b)] has a Selectivity ([4]; Tryptase, ratio of Ki of an enzyme to the Ki of thrombin) of 106, a Ki ([4]; tryptase, read-out: Ki) of 9e-09 M and a Selectivity [17] of 227.
`N=C(N)NCCC[C@H](NC(=O)[C@@H]1CCN2CC[C@@](N)(Cc3ccccc3)C(=O)N12)C(=O)c1nccs1` [Structure (47)] gave a Ki [1] of 968 nM, a Ki [18] of 1500 nM and a Ki [5] of 1.9 nM.
`N=C(N)NCCC[C@H](NC(=O)[C@@H]1CCN2CC[C@@](N)(Cc3ccccc3)C(=O)N12)C(=O)C(=O)NCCc1ccccc1` [Structure (35)] was tested, and the Ki [1] was 16.4 nM, the Ki [18] was 345 nM and the Ki [5] was 0.027 nM.
For `CC1=C2[C@H]3OC(=O)[C@@H](C)[C@@H]3CC[C@@]2(C)C=CC1=O` [Santonin], the “thioredoxin-induced turbidity of insulin” value [19] was “did not block thioredoxin-induced turbidity of insulin”.
